Experimental data published in PubChem BioAssay (NCI).
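48-hour exposure; five concentrations; linearly interpolated endpoints. GI50 = concentration required for 50% inhibition of growth. TGI denotes the concentration required for complete inhibition of growth.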

Experiments:
Assay in all cases: NCI anticancer screen, dose series, 48 h
[1] = tested on: EKVX NSCLC
[2] = tested on: SF-539 CNS
[3] = tested on: HT29 colon
[4] = tested on: OVCAR-4 ovarian
[5] = tested on: MALME-3M melanoma
[6] = tested on: RPMI-8226 leukemia
[7] = tested on: IGROV1 ovarian
[8] = tested on: HS 578T breast
[9] = tested on: MDA-MB-231 breast
[10] = tested on: NCI/ADR-RES ovarian

Row | SMILES | TGI [1] [µM] | TGI [2] [µM] | TGI [3] [µM] | TGI [4] [µM] | TGI [5] [µM] | TGI [6] [µM] | TGI [7] [µM] | GI50 [8] [µM] | TGI [8] [µM] | GI50 [1] [µM] | GI50 [9] [µM] | TGI [9] [µM] | GI50 [10] [µM] | TGI [10] [µM] | GI50 [2] [µM] | GI50 [3] [µM] | GI50 [4] [µM] | GI50 [6] [µM] | GI50 [7] [µM] | GI50 [5] [µM]
1 | c1ccc2c(c1)N=C(c1ccc3ccccc3c1)CC(c1cccc3ccccc13)S2 (stereo not given) | > 100 | > 100 | > 100 | > 100 | > 100 | 52.5 | > 100 |  |  |  |  |  |  |  |  |  |  |  |  | 
2 | COC1=CC2CCN3Cc4cc5c(cc4C(C1O)C23)OCC5 (stereo not given) | 32.6 | 21.3 | 9.48 | 22.8 |  | > 29.1 | > 24.8 | 5.7 | > 32.7 | 4.66 | 2.86 | 22.6 | 3 | 18.4 | 3.95 | 0.97 | 1.33 | 15 | 4.59 | 
3 | O=C1NC(=O)C(c2c[nH]c3ccccc23)=C1c1ccccc1 |  | > 25 | > 25 | > 25 | > 25 | > 25 | > 25 | > 25 | > 25 |  | > 25 | > 25 | > 25 | > 25 | > 25 | > 25 | > 25 | > 25 | > 25 | > 25
4 | N#Cc1cn(-c2c3ccccc3nc3ccccc23)c(=O)[nH]c1=O | 38.1 | 7.71 | 28.5 | 20.4 | 24.3 | 75.8 | 71.8 |  |  |  |  |  |  |  |  |  |  |  |  | 
5 | CC1CC(c2ccc(Cl)c(Cl)c2)=Nc2ccccc2S1 (stereo not given) | > 100 | > 100 | > 100 | > 100 | > 100 | > 100 | > 100 |  |  |  |  |  |  |  |  |  |  |  |  | 
6 | Cc1ccc2nc3c(C)cc(=O)cc-3sc2c1 | 66.4 | 42.6 | > 100 | 33.6 | 81.1 |  | > 100 |  |  |  |  |  |  |  |  |  |  |  |  | 
7 | NCC1(N2CCOCC2)C2CCCC21CNc1ccccc1 (stereo not given) |  | > 100 | > 100 | > 100 | > 100 |  | > 100 |  |  |  |  |  |  |  |  |  |  |  |  | 
8 | OCc1ccc(N(Cc2ccc(F)cc2)CC2CCC2)cc1Cl |  | 30.4 | 26.2 | 14.6 | 31.8 | 31.6 | 4.05 | 17.3 | 40.3 |  | 13.5 | 26.8 | 12.8 | 28 | 16.3 | 12.9 | 2.18 | 9.28 | 0.755 | 16.3
9 | CN1CCc2cc3c4cc2C1Cc1ccc(cc1)Oc1cc(ccc1O)CC1c2c(cc(O)c(c2O4)O3)CCN1C (stereo not given) | 25.8 | 3.21 | 9.42 | 4.37 | 3.56 | 4.02 | 14.3 |  |  |  |  |  |  |  |  |  |  |  |  | 
10 | O=C(NC1C(=O)NNC1c1ccccc1Cl)c1ccccc1 (stereo not given) | > 100 | > 100 | > 100 | > 100 | > 100 | > 100 | > 100 |  |  |  |  |  |  |  |  |  |  |  |  | 
